Laboratory results: patent publication EP1370276B1, “INTERCELLULAR COMMUNICATION FACILITATING COMPOUNDS AND THEIR MEDICAL USE” (Zealand Pharma A/S, priority 2001, dated 2002)
[ ]: non-standard residue; d: D form. Hyp = O=C(O)[C@@H]1C[C@@H](O)CN1

What was measured:
[1] = tested on: calcium-induced arrythmias; assay: Calcium-induced arrhythmia model in mice (time to 2nd degree AV-block); format: in vivo; conditions: for CaCl2 mice In vivo, % / CaCl2 mice Score: calcium chloride induced arrythmia model; for CaCl2 mice Score: no key for the score; for In vivo activity: maximal effect, increase in time until 2nd degree AV-block relative to vehicle, i.v.
Protocol: The antiarrhythmic effects of compounds of this invention were tested in an in vivo model of calcium-induced arrythmias according to the model of Lynch et al. ^[37]. […]. Commercial solutions of hypnorm and midazolam were diluted 1:1 in distilled water and one part diluted Hypnorm® is mixed with one part diluted midazolam.
The anaesthesia was induced by s.c. administration in a dose of […]. An i.v. cannula was inserted into the tail vein. The lead II ECG signal was recorded continuously by positioning of a stainless steel ECG electrodes on the right forelimb and on the left hind limb. The ground electrode was placed on the right hind limb. The signal was amplified (x 5.000-10.000) and filtered (0.1-150 Hz) via a Hugo Sachs Electronic model 689 ECG module. The analogue signal was digitised via a 12 bit data acquisition board (Data Translation model DT321) and sampled at 1000 Hz using the Notocord HEM 3.1 software for Windows NT. After a 10-min equilibration period, the test sample of drug was injected into the tail vein. Mice pre-treated with vehicle were tested as a measure of the control level in untreated animals. The injection volume was 100 µl in all experiments. Infusion of CaCl2 (30 mg/ml, 0.1 ml/min ≈ 100 mg/kg/min (calciumchlorid-2-hydrat, Riedel-de Haën, Germany)) was started 3 min after i.v. administration of drug or vehicle. The time lag to onset of 2nd degree AV-block was determined as the time from the start of CaCl2 infusion until the first arrhythmic event occured. An event of 2nd degree AV-block was defined as intermittent failure of the AV conduction characterised by a P-wave without the concomitant QRS complex.
Responses were expressed relative to the time until 2nd degree AV-block occurred in vehicle treated mice.

[2] = In vitro plasma and serum stability, human; format: in vitro ADME; conditions: for T1/2 PLASMA, HEPARIN HUMAN: 37°C
Protocol: (§1) The stability of peptides is analysed in serum and plasma. The peptides are incubated at 37°C in plasma or serum and samples taken at approx. 9 regular intervals between t=0 and t=156 min are analysed by HPLC.
This is done by subsequent injections of the drug, plasma, and a co-injection with the drug and the plasma, followed by optimisation of the LC method parameters until a satisfactory separation is obtained. Three parallel experiments are performed for each plasma type.100 ml of peptide is mixed with 900 ml plasma at t = 0 and incubated at 37°C (drug-plasma mixture conc. 0.1 mg/ml). Samples of 100 ml of the drug-plasma mixture are removed at appropriate intervals and the degradation stopped by precipitation of the sample with 10 ml MeCN:TFA 50:50 v/v. A control plasma sample without the drug treated in the same manner is also taken. The plasma samples are centrifuged for 15 min. at 12,000 rpm (Eppendorf centrifuge) at ambient temperature. The resulting supernatant solution is transferred to 300 ml HP autosamler vials and analyzed by HPLC. The samples are analyzed in the following order: blank, the peptide at 0.1 mg/mL, the plasma without the peptide, the three parallel samples for t = 0, the three parallel samples for t = 5 min. the three parallel samples for t = 10 min. etc. And finally the three parallel samples for t = 0 are repeated to make sure that there have been no degradation or other failure during the analyses. The sample concentrations (peak height in mAU) are plotted vs. time and fitted to a function describing a mono exponential decay (Excel). […] Table 7. Results of in vitro stability test in plasma and serum, T1/2 in min and hrs

[3] = In vitro plasma and serum stability, rabbit; format: in vitro ADME; conditions: 37°C
Protocol: as §1
This is done by subsequent injections of the drug, plasma, and a co-injection with the drug and the plasma, followed by optimisation of the LC method parameters until a satisfactory separation is obtained. Three parallel experiments are performed for each plasma type.[…] at t = 0 and incubated at 37°C (drug-plasma mixture conc. 0.1 mg/ml). Samples of 100 ml of the drug-plasma mixture are removed at appropriate intervals and the degradation stopped by precipitation of the sample with 10 ml MeCN:TFA 50:50 v/v. A control plasma sample without the drug treated in the same manner is also taken. The plasma samples are centrifuged for 15 min. at 12,000 rpm (Eppendorf centrifuge) at ambient temperature. The resulting supernatant solution is transferred to 300 ml HP autosamler vials and analyzed by HPLC. The samples are analyzed in the following order: blank, the peptide at 0.1 mg/mL, the plasma without the peptide, the three parallel samples for t = 0, the three parallel samples for t = 5 min. the three parallel samples for t = 10 min. etc. […]

[4] = tested on: cAMP formation in CHO cells; assay: Inhibition of forskoline stimulated cAMP formation in CHO cells; format: cell-based; conditions: 10 µM forskoline, 20 min, cells pre-treated with glucose and oxygen deprivation
Protocol: CHO cells are seeded in 96-well microtiter plates in a density of 6,000 cells/cm^2 (∼ 2,000 cells/well) and grown for 4 days in vitro in 200 µl/well of growth media as described in the previous section.
On the day of analysis cells are removed from the incubator and washed twice with 200 µl pre-warmed (37°C) D-PBS (pH 7.2) to remove serum. Cells are incubated for 10 min in glucose free D-PBS and an N2-atmosphere as described in the previous section.
CHO cells are incubated at 37° C in D-PBS (pH 7.2) containing 6 mM glucose, 2.0 mM IBMX (phospodiesterase blocker), 10 µM forskoline (stimulates cAMP formation) and increasing concentrations of test peptide. The reaction is stopped after 20 min by addition of 20 µl 0.5 M HCl and left for at least 20 min at room temperature.
The content of cAMP is analysed by mixing 20 µl of the acid cell extract into FlashPlate™ wells (NEN assay kit SMP001) containing 180 µl [^12SI]cAMP tracer solution. FlashPlates™ are incubated overnight at 4° C and plate bound radioactivity counted in TopCount (Packard Instrument). Data are calculated as described in the previous section.

[5] = target: murine heart tissue preparations; assay: Displacement of [125I]AAP10 from murine heart tissue preparations; format: binding, mice; conditions: displacement of 0.8 nM [125I]AAP10, filtrate; read-out: Filtrate IC50
Protocol: Hearts are excised from mice (Balb/cJ, 20 g), rinsed twice in ice-cold (0°C) 0.32 M sucrose and homogenized on ice in 10 volumes of sucrose with an Ultra Turrax homogeniser (1000 rpm) for 2 minutes. The homogenate is centrifuged at 1000 gmea" for 10 minutes at 4° C and the supernatant collected and filtrated through 4 layers of gauze. The filtrate is then centrifuged at 50,000 gmean for 45 min at 4° C and the pellet resuspended in 10 volorg. wet weight ice-cold distilled water and incubated for 60 min at 0° C and re-centrifuged at 50,000 gmean at 45 min at 4° C. The resulting pellet is resuspended in 2 vol org. wet weight of PBS (Phosphate Buffered Saline) and stored at - 80° C until use.

[6] = tested on: CHO cells; assay: In situ binding of [125I]AAP10 on intact CHO cells; conditions: overnight at 4° C
Protocol: CHO cells are seeded in 24-multi well dishes in a density of 7,900 cells/cm^2 (∼ 15,000 cells/well) and grown for 3 Days In Vitro (DIV) in 1 ml/well of F-12K Nutrient Mixture supplemented with 10% Foetal Calf Serum (FCS) and 1000 units penicillin/1000 µg streptomycin (pen/strep) in an atmosphere of 5% CO2 and 100% humidity at 37° C. The cell density has at that time increased to 295,000 cells/cm^2 (152 pgprot/cell ∼ 85 µgprot/well).
On the day of analysis cells are removed from the incubator and each well is washed twice with, depending on the experiment, either 2 ml pre-warmed (37 °C) or ice-cold (0 °C) D-PBS to remove serum. It is important to keep the period to a minimum during which cells are left without physiological solutions to avoid that they dry out during washing procedures. The cold washed cells are used directly for binding assays while the warm washed cells are used for experiments with glucose and oxygen deprivation.
The in situ binding is performed by a modified protocol based on the description by Koenig. […] Cells incubate overnight at 4° C to reach equilibrium. Each well, one at the time, is then rinsed rapidly with 2 x 1 ml D-PBS and left to dry.
0.25 ml of 0.5 % Triton-X-100 (v/v) is added to each well and cells left for at least 1 h to solubilize. The extract is transferred to counting vials, the wells rinsed with 0.25 ml water and the rinse extract added to the corresponding vials. The vials are counted in a γ-counter. Table 3. In situ binding, IC50 (nM).

[7] = tested on: isolated perfused rabbit hearts; assay: Isolated perfused rabbit heart (Langendorff), APD90 dispersion during hypokalemic ischemia; conditions: 10^-10 mol/l
[8] = tested on: phosphoinositol turnover in rat primary cardiomyocytes; assay: Phosphoinositol turnover in primary cardiomyocyte cultures; format: cell-based; conditions: for EC50: enhancement of phospho-inositol turnover
Protocol: Neonatal Wistar rats (1-2 days old) are used. Hank's calcium- and magnesium-free balanced salt solution, buffered with 10 mM HEPES is used for washing during cell separation procedures. The hearts are excised, the ventricles isolated and the tissue cut into small pieces. The myocardial cells are isolated by stepwise enzymatic degradation with collagenase 0.05%, as described by ^[35]. After repeated rounds of centrifugation and washing, the precipitated cells are resuspended in culture medium M199 with Earle's salt, 10% NCS, penicillin (75 U/mL), and streptomycin (75 U/mL) and pre-plated in a Petri dish for 90 minutes. The non-adherent cells are collected in the culture medium and plated in multidishes at 2.5*10^5 cells/well. The cultures are kept in a water-saturated CO2-incubator at 37°C. The cardiomyocyte cultures are used for analyses after 6-7 days.
Cardiomyocyte cultures are incubated for 48 hours in culture medium containing 4 µCi/mL myo-[2-^3H]inositol to label the inositol phospholipids. On the day of analysis the medium is replaced by a buffer solution containing lithium and incubated at 37°C, as described by Meier et al. ^[36]. After at least five minutes this buffer is replaced by the same volume of buffer containing test compound and incubated for exactly 20 minutes. The reaction is stopped by rapid replacement of the buffer by ice cold 4%v/v perchloric acid (PCA) and incubation for at least 20 minutes at 0°C. The PCA-extract is neutralised and the [^3H]inosltol phosphates are separated by anion-exchange chromatography using Amprep™ columns containing 100 mg SAX Quaternary amine. The [^3H]inositol mono-phosphates are eluted and radioactivity in the fraction measured by liquid scintillation counting.
Before adding test substances to the cultures, the cells are depleted of glucose and oxygen by incubating them in a N2-atmosphere in glucose-free lithium-buffer for 10 minutes at 37°C. Control cells are incubated likewise only at normal atmospheric conditions and in a buffer containing glucose.

Substance	CaCl2 mice In vivo, % [1]	CaCl2 mice Score [1]	T1/2 PLASMA, HEPARIN HUMAN [2]	Human plasma half life [2] [h]	T1/2 PLASMA, HEPARIN RABBIT [3]	EC50 [4] [µM]	IC50 [5] [µM]	In vivo activity [1]	IC50 [6] [µM]	increase in APD90 dispersion during hypokalemic, acute myocardial ischemia [7]	EC50 value relative to the EC50 value for Compound 2 ([8]; during metabolic stress induced by anoxia and glucose deprivation) [fold]	EC50 value relative to the EC50 value for Compound 2 ([8]; during normoxia) [fold]	EC50 ([8]; Glucose and oxygen deprivation) [µM]	EC50 ([8]; Normal conditions) [µM]
cyclo(GAG[Hyp]PYQ)	48 +/- 14%	2	15 hrs ± 1%	15	14 hrs ± 2%	–	–	–	–	–	–	–	–	–
cyclo(GAG[Hyp]PYN)	57 +/- 8%	2	9 hrs ± 1%	13	30 hrs ± 8%	–	–	–	–	–	–	–	–	–
H-GP[Hyp]GAG-OH [AAP, reference compound]	–	2	–	–	–	0.053	0.0012	++ (++ refers to 30-50% increase in time until arrhythmia)	0.0008	–	–	–	–	–
H-GAG[Hyp]PY-NH2 [AAP10, reference compound]	–	3	–	–	–	0.011	0.0012	+++ (+++ refers to >60% increase in time until arrhythmia)	0.13	ineffective	10	200	0.1	2
